Results reported in ChEMBL document CHEMBL5143718, “Rational Design of a Theranostic Agent Triggered by Endogenous Nitric Oxide in a Cellular Model of Alzheimer's Disease” (J Med Chem, 2022).
The source made the active and inactive calls. The rule behind the calls is not given here.

Key:
[1] = Cytotoxicity against mouse HT-22 cells assessed as cell viability at 5 uM after 48 hrs by CCK8 assay; assay type: toxicity, cell-based; details: read-out: Activity
HT-22 [2] = assay: Cytotoxicity against mouse HT-22 cells assessed as reduction in cell viability at 5 uM after 24 hrs by CCK8 assay; assay type: toxicity, cell-based; details: ht-22, 24 h
BV-2 [3] = assay: Cytotoxicity against mouse BV-2 cells assessed as reduction in cell viability at 1 to 10 uM incubated for 24 hrs by CCK8 assay; assay type: toxicity, cell-based; details: bv-2, 24 h, dose 1-10 µM
HT-22 [4] = assay: Cytotoxicity against mouse HT-22 cells assessed as reduction in cell viability at 5 uM after 36 hrs by CCK8 assay; assay type: toxicity, cell-based; details: ht-22, 36 h
HT-22 [5] = assay: Antioxidant activity in mouse HT-22 cells cocultured with BV-2 cells assessed as upregulation of HO-1 mRNA expression at 5 uM after 48 hrs by qRT-PCR analysis; assay type: functional, cell-based
HT-22 [6] = assay: Antioxidant activity in mouse HT-22 cells cocultured with BV-2 cells assessed as upregulation of NQO1 mRNA expression at 5 uM after 48 hrs by qRT-PCR analysis; assay type: functional, cell-based
HT-22 [7] = assay: Cytotoxicity against mouse HT-22 cells assessed as reduction in cell viability at higher concentration incubated for 24 hrs by CCK8 assay; assay type: toxicity, cell-based; details: ht-22, 24 h
[8] = Effective permeability of compound in PBS buffer at pH 7.4 incubated for 18 hrs by PAMPA assay; assay type: ADME; details: read-out: Peff
HT-22 [9] = assay: Antioxidant activity in mouse HT-22 cells cocultured with BV-2 cells assessed as increase in GSH level at 5 uM incubated for 48 hrs by DCFH-DA staining based microplate reader analysis; assay type: functional
HT-22 [10] = assay: Antioxidant activity in mouse HT-22 cells cocultured with BV-2 cells assessed as ROS scavenging activity at 5 uM incubated for 48 hrs by DCFH-DA staining based microplate reader analysis; assay type: functional
HT-22 [11] = assay: Cytotoxicity against mouse HT-22 cells assessed as reduction in cell viability at < 5 uM incubated for 24 hrs by CCK8 assay; assay type: toxicity, cell-based; details: ht-22, 24 h
HT-22 [12] = assay: Cytotoxicity against mouse HT-22 cells assessed as increase in live/dead cells ratio at 5 uM after 48 hrs by Live/dead staining based fluorescence microscopic analysis; assay type: toxicity, cell-based; details: ht-22, 48 h
HT-22 [13] = assay: Antioxidant activity in mouse HT-22 cells cocultured with BV-2 cells assessed as reduction in glutamic acid level at 5 uM incubated for 24 hrs; assay type: functional
[14] = Drug uptake in mouse HT-22 cells cocultured with BV-2 cells assessed as increase in fluorescence at 10 uM after 12 hrs; assay type: ADME, cell-based; details: ht-22, 12 h
[15] = Cytotoxicity against mouse HT-22 cells cocultured with BV-2 cells assessed as cell viability at 5 uM after 48 hrs by CCK8 assay (reference value: 5.19 +/- 1.60%); assay type: toxicity, cell-based; details: read-out: Activity
[16] = Drug uptake in LPS-stimulated mouse BV-2 cells assessed as increase in fluorescence at 10 uM pretreated with LPS and L-NAA for 16 hrs followed by compound addition and measured after 3 hrs; assay type: ADME, cell-based; details: bv-2, 3 h
[17] = Drug uptake in INFgamma-stimulated mouse BV-2 cells assessed as increase in fluorescence at 10 uM pretreated with INFgamma and carboxyl-PTIO for 3 hrs followed by compound addition and measured after 3 hrs; assay type: ADME, cell-based
[18] = Drug uptake in LPS-stimulated mouse BV-2 cells assessed as increase in fluorescence at 10 uM pretreated with LPS and carboxyl-PTIO for 3 hrs followed by compound addition and measured after 3 hrs; assay type: ADME, cell-based
[19] = Drug uptake in L-arginine stimulated mouse BV-2 cells assessed as increase in fluorescence at 10 uM pretreated with L-arginine and L-NAA for 16 hrs followed by compound addition and measured after 3 hrs; assay type: ADME, cell-based; details: bv-2, 3 h
[20] = Drug uptake in L-arginine stimulated mouse BV-2 cells assessed as increase in fluorescence at 10 uM pretreated with L-arginine and carboxyl-PTIO for 3 hrs followed by compound addition and measured after 3 hrs; assay type: ADME, cell-based
HT-22 [21] = assay: Cytotoxicity against mouse HT-22 cells cocultured with BV-2 cells assessed as increase in live/dead cells ratio at 5 uM after 48 hrs by Live/dead staining based fluorescence microscopic analysis; assay type: toxicity, cell-based; details: ht-22, 48 h
[22] = Drug uptake in mouse BV-2 cells assessed as increase in fluorescence at 10 uM after 3 hrs; assay type: ADME, cell-based; details: bv-2, 3 h
[23] = Drug uptake in INFgamma-stimulated mouse BV-2 cells assessed as increase in fluorescence at 10 uM pretreated with INFgamma and L-NAA for 16 hrs followed by compound addition and measured after 3 hrs; assay type: ADME, cell-based; details: bv-2, 3 h
BV-2 [24] = assay: Cytotoxicity against mouse BV-2 cells assessed as reduction in cell viability at 10 uM incubated for 24 hrs by CCK8 assay; assay type: toxicity, cell-based; details: bv-2, 24 h

With `CC12CC3CC(C)(C1)CC(NCCOCCOCCOCCOc1ccc(N4c5ccccc5N(c5ccccc5)c5c4c4ccccc4c4ccccc54)cc1)(C3)C2` the viability at 48 h, 5 µM [1] was 45.9%, the Activity (HT-22 [2]) was “Non-Toxic” and the Activity (BV-2 [3]) was “Non-Toxic”. For the same compound, the Activity (HT-22 [4]) was “Non-Toxic”, the Activity (HT-22 [5]) was “Active” and the Activity (HT-22 [6]) was “Active”. For the same compound, the Activity (HT-22 [7]) was “Non-Toxic”, the Papp at 18 h [8] was 5.73 ×10⁻⁶ cm/s and the Activity (HT-22 [9]) was 103.7. The Activity (HT-22 [10]) was 732, the Activity (HT-22 [11]) was “Non-Toxic” and the Activity (HT-22 [12]) was “Non-Toxic”. It also gave an Activity (HT-22 [13]) of 0.32.

With `CC12CC3CC(C)(C1)CC(NCCOCCOCCOCCO)(C3)C2` the viability at 48 h, 5 µM [1] was 20.1% and the Activity (HT-22 [13]) was “Active”.

For `O=C1C(=O)c2ccccc2-c2ccccc21` [9,10-PHENANTHRENEQUINONE], the Drug uptake [14] was “Active”, the viability at 48 h, 5 µM [15] was 4.46% and the Drug uptake [16] was “Active”. The Drug uptake [17] was “Active”, the Drug uptake [18] was “Active” and the Drug uptake [19] was “Active”. For the same compound, the Drug uptake [20] was “Active”, the Activity (HT-22 [21]) was “Non-Toxic” and the Drug uptake [22] was “Active”. For the same compound, the Drug uptake [23] was “Active”.

For `O=C1C=CC(=O)C=C1` [BENZOQUINONE], the Drug uptake [14] was “Active”, the viability at 48 h, 5 µM [15] was 4.33% and the Drug uptake [16] was “Active”. The Drug uptake [17] was “Active”, the Drug uptake [18] was “Active” and the Drug uptake [19] was “Active”. The Drug uptake [20] was “Active”, the Activity (HT-22 [21]) was “Non-Toxic” and the Drug uptake [22] was “Active”. For the same compound, the Drug uptake [23] was “Active”.

In the case of `CC12CC3CC(C)(C1)CC(N)(C3)C2` [MEMANTINE], the viability at 48 h, 5 µM [1] is reported as 13.9%, the Activity (BV-2 [24]) is reported as over 70% and the Activity (HT-22 [2]) is reported as “Non-Toxic”. For the same compound, the Activity (HT-22 [4]) was “Non-Toxic”, the Activity (HT-22 [7]) was “Non-Toxic” and the Activity (HT-22 [9]) was 91.9. For the same compound, the Activity (HT-22 [10]) was 586.7, the Activity (HT-22 [11]) was “Non-Toxic” and the Activity (HT-22 [13]) was 0.47.
